Measured values from US6835755B1, “Naphthoquinone derivatives and their use in the treatment and control of tuberculosis” (priority 1999, dated 2004).
Converted amounts (≈) assume the structure as drawn.

Tested on: resistant strains of Mycobacterium tuberculosis
Test: microbe, parasite or virus in culture
Type: cell-based
Settings: for ΔGI values of plant extracts: at MIC, mean ± s.d.

Row | Structure (SMILES) | ΔGI values of plant extracts (2 drug resistant strain (res. to isoniazid and rifampicin)) [mg/mL] | ΔGI values of plant extracts (3 drug resistant strain (res. to streptomycin, isoniazid and ethambutol)) [mg/mL] | MIC (3 drug resistant strain (res. to streptomycin, isoniazid and ethambutol), radiometric method) [µg/mL] | ΔGI values of plant extracts (4 drug resistant strain (res. to streptomycin, isoniazid, rifampicin and ethambutol)) [mg/mL] | MIC (4 drug resistant strain (res. to streptomycin, isoniazid, rifampicin and ethambutol), radiometric method) [µg/mL] | ΔGI values of plant extracts (5 drug resistant strain (res to isoniazid, streptomycin, rifampicin, thiacetazone and cyclocerine)) [mg/mL] | MIC (5 drug resistant strain (res to isoniazid, streptomycin, rifampicin, thiacetazone and cyclocerine), radiometric method) [µg/mL] | ΔGI values of plant extracts (6 drug resistant strain (res. to isoniazid, rifampicin, ethionamide, terizidone, thiacetazone and ofloxacin)) [mg/mL] | MIC (6 drug resistant strain (res. to isoniazid, rifampicin, ethionamide, terizidone, thiacetazone and ofloxacin), radiometric method) [µg/mL] | ΔGI values of plant extracts (7 drug resistant strain (res to isoniazid, streptomycin, ethambutol, kanamycin, rifampicin, and ethionamide)) [mg/mL] | MIC (7 drug resistant strain (res to isoniazid, streptomycin, ethambutol, kanamycin, rifampicin, and ethionamide), radiometric method) [µg/mL] | MIC (Mycobacterium tuberculosis) [µg/mL] | ΔGI values of plant extracts (Two drug (isoniazid and rifampicin) resistant strain CCKO28469V) | MIC (Minimal inhibitory concentration) (Two drug (isoniazid and rifampicin) resistant strain CCKO28469V, radiometric method) [µg/mL]
1 | Cc1cc(O)c2c(c1)C(=O)C(c1c(C)cc3c(c1O)C(=O)C=CC3=O)=CC2=O [diospyrin, 5,5′ dihydroxy 7,7′ binaphthoquinone] | 3.5 | 4 ± 2.12 | 100 (≈ 267 µM) | 5 ± 2.82 | 100 (≈ 267 µM) | 10 ± 1.41 | 100 (≈ 267 µM) | 9 ± 2.82 | 100 (≈ 267 µM) | 13.5 ± 3.2 | 100 (≈ 267 µM) | 100 (≈ 267 µM) | – | –
2 | Cc1cc(O)c2c(c1)C(=O)C=CC2=O [7-methyljuglone, 5-hydroxy-7-methyl-1,4-naphtoquinone] | – | – | – | – | – | – | – | – | – | – | – | – | 0 ± 0 | 50 (≈ 266 µM)
